In PubChem BioAssay (NCI):
Where “and” joins values, the source holds several entries; their conditions need not be identical. Identical values can stand only once.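 Where inhibition never reached the appropriate level, the endpoint shown equals the highest concentration tested. Otherwise, values were interpolated linearly from a five-concentration, 48-hour dose response in 96-well plates. GI50 is the concentration that inhibits growth by half. TGI is the concentration that stops growth completely.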

Tested on: EKVX NSCLC
Assay: NCI anticancer screen, dose series, 48 h

Structure (SMILES) | GI50 | TGI
CCCCOC(=O)CNC(=O)OC/C=C/C#CC#C/C=C/COC(=O)NCC(=O)OCCCC | > 100 µM | > 100 µM
O=C1c2ccccc2C(=O)N1CCn1ccc(NC(c2ccccc2)(c2ccccc2)c2ccccc2)nc1=O | – | > 100 µM
CC(C)(C)NNC(=O)CCn1[nH]c(=O)c(Cl)c(Cl)c1=O | – | > 100 µM
O=CCC1CCCCC1 | – | > 100 µM
CCC12CCCN(Cc3ccccc3)C1c1c(n(C)c3ccccc13)CC2 (centres undefined) | – | > 253 µM
COc1cc(Nc2ncccc2C(=O)NCc2cn(Cc3cccc(Oc4ccccc4)c3)nn2)cc(OC)c1 | 6.33 µM | > 100 µM
Nc1ccc([N+](=O)[O-])cc1N=C/C=C/c1ccccc1 | 19.1 µM | > 100 µM
Cc1cc(Nc2ccc(NC(=O)c3ccc(Nc4ccnc5ccccc45)cc3)cc2)nc(N)n1 | 2.95 µM | > 100 µM
CCN(CC)CCCN1CCc2c([nH]c3ccccc23)C1c1cccnc1 (centres undefined) | – | > 100 µM
COC(=O)C1c2cc3c(cc2C(OC2OC(C)C(OC)C(C)(OC)C2OC)CC1(C)O)C(=O)c1c(O)cc2c(c1C3=O)OC1OC2(C)C(O)C([N+](C)(C)[O-])C1O (centres undefined) | – | 4.59 µM
Nc1nc(Cl)cc(NCCCCCCCCNc2cc(Cl)nc(N)n2)n1 | – | > 100 µM
CC(C)N(C(=O)C12C3C4C1C1C4(C#N)C3C12C#N)C(C)C (centres undefined) | – | > 100 µM
O=C1CCC(Cl)=CC2CCCN12 (centres undefined) | – | > 100 µM
COc1ccc(/C=C\[N+](=O)[O-])cc1OC | 15.6 µM | 38.1 µM
c1ccc2cc(-c3cc4ccccc4s3)ccc2c1 | – | > 100 µM
Cc1ccc(S(=O)(=O)Nc2ccccc2C=O)cc1 | – | 61.1 µM

Structure (SMILES) | GI50 | TGI
Cc1ccc(S(=O)(=O)N(C=O)N=C2CCN(Cc3ccccc3)CC2)cc1 | – | > 100 µM
CC(C)C(CCl)NC(=O)c1cccc(C(=O)N[C@H](CCl)C(C)C)n1 (stereo in doubt) | – | > 100 µM
CCC(=O)CC(=O)CCC(=O)Nc1cc(C)ccc1C | – | > 100 µM
C(=NCCN1CCOCC1)=NC1CCCCC1 | – | > 100 µM
CC[As](CC)SC[C@H](C)C(=O)N1CCC[C@H]1C(=O)O | 0.162 µM | 1.72 µM
NC(N)=N/N=C/c1c(-c2ccsc2)nc2sccn12 | 15.1 µM | 29.4 µM
Oc1ccc(Nc2ncnc3c2sc2ncccc23)cc1 | 0.097 µM | > 100 µM
CC(=O)OC1COC(Oc2c(C)c3c4c(c2O)[C@@H](C)CC[C@@H]4[C@@H](C)C[C@H]3C=C(C)C)C(O)C1OC(C)=O (some centres undefined) | 22.6 µM | 45.5 µM
S=C(Nc1ccc(Cl)cc1)Nc1ccc(-c2nc3ccccc3s2)cc1 | 15.1 µM | 42.9 µM
O=c1/c(=C/c2ccccc2[N+](=O)[O-])sc2nnc(-c3ccco3)n12 | – | > 100 µM
CC(=O)CCn1ncc(Cl)c(Cl)c1=O | – | 36.1 µM
CO/N=C(/C)c1cccc(Nc2cc(-n3nnc4ccccc43)nc3ccccc23)c1 | 27.3 µM | 86.2 µM
COc1cc(C(=O)N2CCN(C=O)C2=S)cc(OC)c1OC | 31.8 µM | 97.6 µM
CN1CC(=O)N2Cc3ccccc3-n3cccc3C2C1 (centres undefined) | – | > 100 µM
Cc1cn2c(=O)c3ncn(C4OC(CO)C(O)C4O)c3n(C)c2n1 (centres undefined) | – | > 100 µM
CC/C=C\C[C@H](O)C/C=C1/C(=O)C(Cl)=C[C@@H]1C/C=C\CCCC(=O)OC | 1.03 µM | 3.51 µM

Tested on: HCC-2998 colon
Assay: NCI anticancer screen, dose series, 48 h

Structure (SMILES) | TGI | GI50
Clc1ccc2c(c1)[nH]c1c2nc2ccccn21 | 63.3 µM and 13.8 µM | –
CCOC(=O)c1cnc2c(ccc3[nH]n(C)nc32)c1=O | > 100 µM | –
NC(=S)N/N=C(\CC1OC(=O)c2ccccc21)c1ccc(Cl)cc1 (centres undefined) | 48.6 µM | –
COc1ccc2occ(CCC(=O)O)c2c1 | > 100 µM | –
COC(=O)C(C(=O)c1ccccc1)C(C(=O)C(=O)Nc1ccc(OC)cc1OC)C(=O)C(=O)c1ccc(C)cc1 (centres undefined) | > 100 µM | –
O=C1CCC2(c3ccc(Cl)cc3)Nc3ncccc3N12 (centres undefined) | > 100 µM | –
C#CCOc1cccc(-c2ncc3cc(NC(=O)CCl)ccc3n2)c1 | 3.4 µM | 1.91 µM
CC12C/C(=C\c3ccccc3)C(=O)C3C1CCCC32 | > 100 µM | –
OC(CC1SCCCS1)c1ccccc1 (centres undefined) | > 100 µM | –
CCCCOC(=O)CNC(=O)OC/C=C/C#CC#C/C=C/COC(=O)NCC(=O)OCCCC | > 100 µM | > 100 µM
O=C1c2ccccc2C(=O)N1CCn1ccc(NC(c2ccccc2)(c2ccccc2)c2ccccc2)nc1=O | 37.7 µM | –
CC(C)(C)NNC(=O)CCn1[nH]c(=O)c(Cl)c(Cl)c1=O | > 100 µM | –
CCC12CCCN(Cc3ccccc3)C1c1c(n(C)c3ccccc13)CC2 (centres undefined) | > 253 µM | –
COc1cc(Nc2ncccc2C(=O)NCc2cn(Cc3cccc(Oc4ccccc4)c3)nn2)cc(OC)c1 | > 100 µM | 9.6 µM
Nc1ccc([N+](=O)[O-])cc1N=C/C=C/c1ccccc1 | > 100 µM | 30.1 µM
CCN(CC)CCCN1CCc2c([nH]c3ccccc23)C1c1cccnc1 (centres undefined) | > 100 µM | –

Structure (SMILES) | TGI | GI50
Nc1nc(Cl)cc(NCCCCCCCCNc2cc(Cl)nc(N)n2)n1 | > 100 µM | –
CC(C)N(C(=O)C12C3C4C1C1C4(C#N)C3C12C#N)C(C)C (centres undefined) | > 100 µM | –
O=C1CCC(Cl)=CC2CCCN12 (centres undefined) | > 100 µM | –
c1ccc2cc(-c3cc4ccccc4s3)ccc2c1 | > 100 µM | –
Cc1ccc(S(=O)(=O)N(C=O)N=C2CCN(Cc3ccccc3)CC2)cc1 | > 100 µM | –
CC(C)C(CCl)NC(=O)c1cccc(C(=O)N[C@H](CCl)C(C)C)n1 (stereo in doubt) | > 100 µM | –
Oc1ccc(Nc2ncnc3c2sc2ncccc23)cc1 | > 100 µM | > 33.3 µM
CC(=O)OC1COC(Oc2c(C)c3c4c(c2O)[C@@H](C)CC[C@@H]4[C@@H](C)C[C@H]3C=C(C)C)C(O)C1OC(C)=O (some centres undefined) | 8.84 µM | 2.3 µM
S=C(Nc1ccc(Cl)cc1)Nc1ccc(-c2nc3ccccc3s2)cc1 | 27.8 µM | 14.7 µM
O=c1/c(=C/c2ccccc2[N+](=O)[O-])sc2nnc(-c3ccco3)n12 | 43.4 µM | –
CC(=O)CCn1ncc(Cl)c(Cl)c1=O | 21.9 µM | –
CO/N=C(/C)c1cccc(Nc2cc(-n3nnc4ccccc43)nc3ccccc23)c1 | > 100 µM | 25.7 µM
COc1cc(C(=O)N2CCN(C=O)C2=S)cc(OC)c1OC | 38.7 µM | 19.8 µM
CN1CC(=O)N2Cc3ccccc3-n3cccc3C2C1 (centres undefined) | > 100 µM | –
Cc1cn2c(=O)c3ncn(C4OC(CO)C(O)C4O)c3n(C)c2n1 (centres undefined) | > 100 µM | –
CC/C=C\C[C@H](O)C/C=C1/C(=O)C(Cl)=C[C@@H]1C/C=C\CCCC(=O)OC | 2.22 µM | 0.701 µM

Tested on: MCF7 breast
Assay: NCI anticancer screen, dose series, 48 h

Structure (SMILES) | GI50 | TGI
Nc1ccc([N+](=O)[O-])cc1N=C/C=C/c1ccccc1 | 6.61 µM | > 100 µM
COC(=O)C1c2cc3c(cc2C(OC2OC(C)C(OC)C(C)(OC)C2OC)CC1(C)O)C(=O)c1c(O)cc2c(c1C3=O)OC1OC2(C)C(O)C([N+](C)(C)[O-])C1O (centres undefined) | – | > 100 µM
COc1ccc(/C=C\[N+](=O)[O-])cc1OC | 3.05 µM | 15.9 µM
Cc1ccc(S(=O)(=O)Nc2ccccc2C=O)cc1 | – | 35.2 µM
C(=NCCN1CCOCC1)=NC1CCCCC1 | – | > 100 µM
CC[As](CC)SC[C@H](C)C(=O)N1CCC[C@H]1C(=O)O | 0.0363 µM | 0.159 µM
Oc1ccc(Nc2ncnc3c2sc2ncccc23)cc1 | < 0.01 µM | > 100 µM
CC(=O)OC1COC(Oc2c(C)c3c4c(c2O)[C@@H](C)CC[C@@H]4[C@@H](C)C[C@H]3C=C(C)C)C(O)C1OC(C)=O (some centres undefined) | 17.5 µM | > 100 µM
CO/N=C(/C)c1cccc(Nc2cc(-n3nnc4ccccc43)nc3ccccc23)c1 | 31.3 µM | > 100 µM
COc1cc(C(=O)N2CCN(C=O)C2=S)cc(OC)c1OC | 5.49 µM | 24.6 µM
NC(=S)N/N=C/C(=O)O | 5.58 µM | > 100 µM
CC/C=C\C[C@H](O)C/C=C1/C(=O)C(Cl)=C[C@@H]1C/C=C\CCCC(=O)OC | 0.185 µM | 2.44 µM

Tested on: MDA-MB-435
Assay: NCI anticancer screen, dose series, 48 h

Structure (SMILES) | TGI
O=CCC1CCCCC1 | > 100 µM
